System: patients with metastatic NSCLC progressing on or after platinum therapy
Assay: LUNAR phase 3 randomized study: overall survival, progression-free survival, radiological response
Procedure: LUNAR was a prospective, phase 3, randomized, open-label, parallel study (EF-24; NCT02973789) of TTFields (150 kHz) therapy concomitant with standard-of-care systemic therapy (docetaxel or investigator's choice immune checkpoint inhibitor) in patients with metastatic NSCLC progressing on or after platinum therapy. LUNAR was conducted at 124 sites across 17 countries in North America, Europe, and Asia (Table Si) between February 2017 and November 2021.
Eligible participants were adults (≥22 years of age) with a histological or cytological diagnosis of metastatic NSCLC that had shown radiological progression while on or after platinum-based systemic therapy (prior ICI permitted). Other than maintenance therapy, the most recent systemic therapy administered for advanced NSCLC was platinum-therapy. […]
Eligible patients were randomly assigned 1:1 (within 28 days of providing informed consent) to receive TTFields therapy to the thorax concomitant with investigator's choice of standard therapy (an immune checkpoint inhibitor [nivolumab, pembrolizumab, or atezolizumab] or docetaxel). Randomization was determined centrally using variable blocked randomization and an IxRS system, and stratified by tumor histology, treatment (docetaxel or an immune checkpoint inhibitor), and region (North America, Western Europe/Israel, and Eastern Europe). […]

Compound CC(=O)O[C@@]12CO[C@@H]1C[C@H](O)[C@@]1(C)C(=O)[C@H](O)C3=C(C)[C@@H](OC(=O)[C@H](O)[C@@H](NC(=O)OC(C)(C)C)c4ccccc4)C[C@@](O)([C@@H](OC(=O)c4ccccc4)[C@H]21)C3(C)C [Docetaxel, docetaxel] has an one-year survival rate (docetaxel subgroup) of 39.4% and a median overall survival (subgroup receiving docetaxel) of 8.9 months.

Source: US20240399142A1, “Methods Of Using Alternating Electric Fields And Checkpoint Inhibitors” (NOVOCURE GMBH, priority 2023, published 2024)
